Source: USRE48461E1, “Modulation of androgen receptor expression” (Ionis Pharmaceuticals, Inc., priority 2012, dated 2021)

Key:
Format in all cases: cell-based, human
[1] = system: LMR20 cells; assay: Proliferation of MDV3100-resistant LMR20 cells (MTT; with R1881 or DHT); settings: 5 days
How it was run: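 Cells were held in phenol red-free medium with charcoal-stripped FBS and given antisense oligonucleotides plus 1 nM R1881 or 10 nM DHT from day 1. Proliferation was read by MTT after 5 days of treatment and reported as percent inhibition against non-treated cells.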

[2] = system: prostate-specific antigen (PSA) mRNA; assay: PSA mRNA levels in LMR20 cells; settings: with or without DHT/R1881
Protocol: LMR20 cells were plated at 1,500 cells per well in phenol red-free medium with CSS. […] Results are presented in Tables 43-45 as mRNA levels expressed as a percentage of the baseline values. mRNA levels may be lowered or increased after treatment.

[3] = system: PSA mRNA; assay: PSA expression in LNCaP cells (complete, CSS+DHT medium); settings: for Percent inhibition of PSA expression in LNCaP cells cultured in CSS + DHT medium: CSS + DHT (1 nM) medium, 48 hrs; for Percent inhibition of PSA expression in LNCaP cells cultured in complete medium: 48 hours
How it was run: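 LNCaP cells treated with antisense oligonucleotides, ISIS 549148 as negative control; AR, PSA and TMPRSS2 RNA measured after 48 h. Complete medium used 1,000 cells/well; stripped-serum condition used 2,000 cells/well in phenol red-free RPMI with 5% charcoal-stripped serum, with 1 nM DHT (final) added 4 h after treatment.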

[4] = system: LNCaP cells; assay: LNCaP cell proliferation (complete or CSS+DHT medium); settings: 5 days; for Proliferation (% untreated control) in LNCaP cells cultured in CSS + DHT medium: CSS + 1 nM DHT medium
How it was run: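 Proliferation of LNCaP cells read after 5 days of treatment in complete medium or charcoal-stripped serum medium plus 1 nM DHT, using CellTiter 96 AQueous One (MTS) or CellTiter-Glo.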

[5] = system: AR V7 variant mRNA; assay: AR V7 variant RNA in VCaP cells; settings: RNAiMax, 48 hrs
[6] = system: TMPRSS2 mRNA; assay: TMPRSS2 expression in VCaP cells; settings: RNAiMax, 48 hrs
[7] = system: VCaP cells; assay: VCaP apoptosis (Caspase-Glo 3/7); settings: complete medium, 72 hours; for Apoptosis (% untreated control): VCaP cells
Protocol: After a treatment period of 72 hours in complete medium, apoptosis of the cancer cells was measured with Caspase-Glo 3/7 assay (Promega). Results are presented in Tables 117 and 118 as percent apoptosis of the cells, relative to non-treated cells.

## TTGATTTAATGGTTGC [ISIS 560131] (MOE and (S)-cEt gapmer chemistry, further chemistry not given here) [targets intron 1]
[1]; CSS + DHT, ASO 0.04 μM
  Percent inhibition of LMR20 cell proliferation: 0%
[1]; CSS + DHT, ASO 0.20 μM
  Percent inhibition of LMR20 cell proliferation: 13%
[1]; CSS + DHT, ASO 1.0 μM
  Percent inhibition of LMR20 cell proliferation: 57%
[1]; CSS + DHT, ASO 5.0 μM
  Percent inhibition of LMR20 cell proliferation: 71%
[1]; CSS + R1881, ASO 0.04 μM
  Percent inhibition of LMR20 cell proliferation: 0%
[1]; CSS + R1881, ASO 0.20 μM
  Percent inhibition of LMR20 cell proliferation: 13%
[1]; CSS + R1881, ASO 1.0 μM
  Percent inhibition of LMR20 cell proliferation: 55%
[1]; CSS + R1881, ASO 5.0 μM
  Percent inhibition of LMR20 cell proliferation: 70%
[1]; CSS, ASO 0.04 μM
  Percent inhibition of LMR20 cell proliferation: 0%
[1]; CSS, ASO 0.20 μM
  Percent inhibition of LMR20 cell proliferation: 0%
[1]; CSS, ASO 1.0 μM
  Percent inhibition of LMR20 cell proliferation: 9%
[1]; CSS, ASO 5.0 μM
  Percent inhibition of LMR20 cell proliferation: 16%
[1]; in the presence of R1881 or DHT, 0.04-5.0 μM
  LMR20 cell proliferation: significantly inhibited MDV3100-resistant prostate cancer cell proliferation in a dose dependent manner more extensively than ISIS 554221
[2]
  PSA mRNA levels in LMR20 cells: reduced PSA levels and TMPRSS2 more extensively than the LNA gapmer ISIS 554221 or MDV3100
[3]; 0.04 μM
  Percent inhibition of PSA expression in LNCaP cells cultured in CSS + DHT medium: 10%
  Percent inhibition of PSA expression in LNCaP cells cultured in complete medium: 0%
[3]; 0.2 μM
  Percent inhibition of PSA expression in LNCaP cells cultured in CSS + DHT medium: 21%
  Percent inhibition of PSA expression in LNCaP cells cultured in complete medium: 60%
[3]; 1 μM
  Percent inhibition of PSA expression in LNCaP cells cultured in CSS + DHT medium: 21%
  Percent inhibition of PSA expression in LNCaP cells cultured in complete medium: 87%
[3]; 5.0 μM
  Percent inhibition of PSA expression in LNCaP cells cultured in CSS + DHT medium: 72%
  Percent inhibition of PSA expression in LNCaP cells cultured in complete medium: 90%
[4]; 0.04 μM
  Proliferation (% untreated control) in LNCaP cells cultured in CSS + DHT medium: 97 % untreated control
  Proliferation (% untreated control) in LNCaP cells cultured in complete medium: 96 % untreated control
[4]; 0.2 μM
  Proliferation (% untreated control) in LNCaP cells cultured in CSS + DHT medium: 81 % untreated control
  Proliferation (% untreated control) in LNCaP cells cultured in complete medium: 70 % untreated control
[4]; 1 μM
  Proliferation (% untreated control) in LNCaP cells cultured in CSS + DHT medium: 46 % untreated control
  Proliferation (% untreated control) in LNCaP cells cultured in complete medium: 48 % untreated control
[4]; 5.0 μM
  Proliferation (% untreated control) in LNCaP cells cultured in CSS + DHT medium: 8 % untreated control
  Proliferation (% untreated control) in LNCaP cells cultured in complete medium: 45 % untreated control
[4]; complete medium or CSS+1 nM DHT
  proliferation of LNCaP cells: reduced proliferation of the cells in a dose dependent compared to the control
[5]; CSS + DHT medium, 1.34 nM
  Percent inhibition of AR V7 variant: 27%
[5]; CSS + DHT medium, 4.0 nM
  Percent inhibition of AR V7 variant: 31%
[5]; CSS + DHT medium, 13.4 nM
  Percent inhibition of AR V7 variant: 39%
[5]; CSS + DHT medium, 40 nM
  Percent inhibition of AR V7 variant: 41%
[5]; complete medium, 1.34 nM
  Percent inhibition of AR V7 variant: 0%
[5]; complete medium, 4.0 nM
  Percent inhibition of AR V7 variant: 57%
[5]; complete medium, 13.4 nM
  Percent inhibition of AR V7 variant: 78%
[5]; complete medium, 40 nM
  Percent inhibition of AR V7 variant: 84%
[6]; CSS + DHT medium, 1.34 nM
  Percent inhibition of TMPRSS2 expression: 0%
[6]; CSS + DHT medium, 4.0 nM
  Percent inhibition of TMPRSS2 expression: 21%
[6]; CSS + DHT medium, 13.4 nM
  Percent inhibition of TMPRSS2 expression: 49%
[6]; CSS + DHT medium, 40 nM
  Percent inhibition of TMPRSS2 expression: 57%
[6]; complete medium, 1.34 nM
  Percent inhibition of TMPRSS2 expression: 0%
[6]; complete medium, 4.0 nM
  Percent inhibition of TMPRSS2 expression: 0%
[6]; complete medium, 13.4 nM
  Percent inhibition of TMPRSS2 expression: 0%
[6]; complete medium, 40 nM
  Percent inhibition of TMPRSS2 expression: 4%
[7]; 1.34 nM
  Apoptosis (% untreated control): 189 % untreated control
[7]; 4.0 nM
  Apoptosis (% untreated control): 253 % untreated control
[7]; 13.4 nM
  Apoptosis (% untreated control): 356 % untreated control
[7]; 40 nM
  Apoptosis (% untreated control): 262 % untreated control
[7]
  apoptosis of VCaP cells: increased apoptosis of the cells in a dose dependent compared to the control
